Measurements taken from patent US20060205031A1, “Newly identified cholinephosphotransferases and ethanolaminephosphotransferases” (1) Universiteit Utrecht Holding B.V., priority 2003, published 2006).

Legend:
human SMS1 = target: T1, human SMS1 (Homo sapiens, UniProt Q86VZ5); test: SM synthase assay on lysates of SMS1-expressing yeast cells; type: biochemical; design: extent of inhibition of SMS1-mediated SM synthesis: dose or concentration left out as unconfirmed
T1 construct: members for which full-length cDNAs could be obtained were cloned into a yeast multicopy, GALL promotor plasmid; His tag (from vector pYES2.1/V5-His-TOPO) (C); made in house; host or cells: Saccharomyces cerevisiae strain IAY11 (unpurified post-nuclear lysate)
T1 sequence (Q86VZ5 1-413): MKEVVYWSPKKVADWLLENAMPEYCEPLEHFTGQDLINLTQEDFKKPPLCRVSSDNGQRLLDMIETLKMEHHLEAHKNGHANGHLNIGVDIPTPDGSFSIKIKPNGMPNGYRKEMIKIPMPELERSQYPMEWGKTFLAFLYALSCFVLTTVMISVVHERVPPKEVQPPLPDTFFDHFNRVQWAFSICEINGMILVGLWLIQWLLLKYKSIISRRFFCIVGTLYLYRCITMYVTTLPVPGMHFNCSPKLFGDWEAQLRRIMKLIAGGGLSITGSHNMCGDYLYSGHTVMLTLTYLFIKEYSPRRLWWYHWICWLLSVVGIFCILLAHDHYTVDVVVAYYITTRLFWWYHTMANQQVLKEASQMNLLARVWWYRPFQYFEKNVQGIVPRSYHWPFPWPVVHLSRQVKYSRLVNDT
Procedure: (§1) CSS-expressing yeast cells were lysed at 100 OD600/ml by bead bashing at 4° C. in RB1 buffer (120 mM K-glutamate, 15 mM KCl, 5 mM NaCl, 2 mM MnCl2, 2 mM MgCl2, 20 mM Hepes-KOH, pH 7.2) containing freshly added protease inhibitors (Holthuis et al., (1998).
(§2) Lysates were centrifuged at 700 g for 10 min at 4° C. and supernatants (0.25 ml per reaction) preincubated with NEM (1 mM) for 10 min at 37° C. The reaction was initiated by addition of 5 nmol of NBD-Cer in 0.1 ml RB1 buffer and incubation continued for 15 min. Lipids were extracted by addition of 1.7 ml chloroform:methanol (1:2.2), dried under N2 and subjected to butanol/water partitioning. Lipids recovered from the butanol phase were separated by one-dimensional TLC for 30 min in solvent I: chloroform/methanol/4.2 M NH4OH (9:7:3, v/v), followed by 30 min in solvent II: chloroform/methanol/acetic acid (45:30:7, v/v). Fluorescent images were recorded on a STORM 860 Imaging Analysis System (Molecular Dynamics, Sunnyvale, Calif.) and analysed with ImageQuant software.

Mammalian SM synthase [1] = conditions: Luberto and Hannun, 1998; cited from earlier work
human SMS2 = target: T2, human SMS2 (Homo sapiens, UniProt Q8NHU3); test: SM synthase assay on lysates of SMS2-expressing yeast cells; type: biochemical
T2 construct: members for which full-length cDNAs could be obtained were cloned into a yeast multicopy, GALL promotor plasmid; His tag (from vector pYES2.1/V5-His-TOPO) (C); made in house; host or cells: Saccharomyces cerevisiae strain IAY11 (unpurified post-nuclear lysate)
T2 sequence (Q8NHU3 1-365): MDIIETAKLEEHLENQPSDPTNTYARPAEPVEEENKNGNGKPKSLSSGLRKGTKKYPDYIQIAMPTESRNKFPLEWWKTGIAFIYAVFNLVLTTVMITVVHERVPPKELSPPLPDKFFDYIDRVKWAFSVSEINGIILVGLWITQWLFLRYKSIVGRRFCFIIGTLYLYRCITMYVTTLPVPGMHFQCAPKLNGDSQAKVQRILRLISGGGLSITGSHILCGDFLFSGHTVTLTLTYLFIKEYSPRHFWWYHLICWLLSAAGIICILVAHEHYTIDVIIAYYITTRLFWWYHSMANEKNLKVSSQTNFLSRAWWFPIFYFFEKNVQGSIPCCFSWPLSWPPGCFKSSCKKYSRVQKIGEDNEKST
Procedure: as §1, §2

yeast-associated SMase = test: NBD-SM incubated with yeast cell lysates, TLC of reaction products; type: biochemical; conditions: NEM 1 mM, NBD-SM 1.8 μM, 30 min at 37° C.
Procedure: (§3) FIG. 3. NEM inhibits yeast-associated SMase but not mammalian SM synthase. (A) TLC separation of reaction products generated when NBD-SM (1.8 μM) was incubated with lysates of exponentially grown yeast cells (20 OD600 cells) in the presence (+) or absence (−) of N-ethylmaleimide (NEM; 1 mM). Reactions were in 0.35 ml RB1 buffer containing 1 μg/ml of IPC synthase inhibitor (aureobasidin A) and incubated for 30 min at 37° C. (B) TLC separation of reaction products generated when NBD-ceramide (NBD-Cer; […]) was incubated with lysates of HeLa cells (1/1: 2×10^6 cells; 1/4: 0.5×10^6 cells) in the presence (+) or absence (−) of NEM (1 mM). Reactions were in 0.35 ml PNS buffer, and incubated for 30 min at 37° C. Lipid extraction and TLC analysis were as described in Materials and methods.

mammalian SM synthase [2] = test: NBD-ceramide incubated with HeLa cell lysates, TLC of reaction products; type: biochemical, human; conditions: NEM 1 mM, 30 min at 37° C.
Procedure: as §3

| Compound | inhibition of SM synthesis (in words) (human SMS1) | extent of inhibition of SMS1-mediated SM synthesis (human SMS1; D609) [%] | sensitivity of mammalian SM synthase (Mammalian SM synthase [1]) | inhibition of SM synthesis (in words) (human SMS2) | sensitivity of SMS2 to the drug relative to SMS1 (human SMS2) | effect on yeast-associated SMases (yeast-associated SMase) | effect on mammalian SM synthase (mammalian SM synthase [2]) |
| --- | --- | --- | --- | --- | --- | --- | --- |
| S=C([S-])OC1CC2CC1C1CCCC21.[K+] (stereo not shown) [D609, O-tricyclo[5.2.1.0^2,6]dec-9-yl dithiocarbonate potassium salt] | inhibited SM synthesis in a dose-dependent manner | 50 | sensitive | inhibited SM synthesis in a dose-dependent manner | two-fold less sensitive | – | – |
| CCN1C(=O)C=CC1=O [NEM, N-ethylmaleimide] | – | – | – | – | – | potent inhibitor | does not affect |
